Assay results published in ChEMBL document CHEMBL5055685, “Discovery of the First Potent IDO1/IDO2 Dual Inhibitors: A Promising Strategy for Cancer Immunotherapy” (J Med Chem, 2021).
Activity calls are given as the source filed them. No cut-off for these calls is given here.

Assays:
[1] = target: T1, Indoleamine 2,3-dioxygenase 2 (Homo sapiens, UniProt Q6ZQW0); assay: Inhibition of IDO2 (unknown origin) assessed as reduction in kynurenine formation using L-tryptophan as substrate by methylene blue reagent based assay
T1 sequence (Q6ZQW0 whole entry): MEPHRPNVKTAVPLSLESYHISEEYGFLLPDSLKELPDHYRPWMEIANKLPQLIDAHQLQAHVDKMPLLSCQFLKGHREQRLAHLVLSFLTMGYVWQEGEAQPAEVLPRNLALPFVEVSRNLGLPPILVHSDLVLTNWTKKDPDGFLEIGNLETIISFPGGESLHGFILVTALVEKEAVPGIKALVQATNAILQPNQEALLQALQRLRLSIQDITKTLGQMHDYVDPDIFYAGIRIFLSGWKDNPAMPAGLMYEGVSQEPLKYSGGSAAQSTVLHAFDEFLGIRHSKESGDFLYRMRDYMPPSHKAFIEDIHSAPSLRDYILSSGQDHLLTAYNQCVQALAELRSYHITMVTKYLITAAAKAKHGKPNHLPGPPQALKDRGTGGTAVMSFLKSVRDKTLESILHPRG

Mus musculus = assay: In vivo inhibition of IDO1/IDO2 in BALB/c mouse xenografted with human HCT-116 cells assessed as downregulation of Foxp3 expression in tumor by immunohistochemical assay; type: functional, organism-based
[2] = target: Ephrin type-A receptor 2 (Homo sapiens) (UniProt P29317); assay: Inhibition of EPHA2 (unknown origin) at 1 uM
Sequence of Ephrin type-A receptor 2 (Homo sapiens) (P29317 whole entry): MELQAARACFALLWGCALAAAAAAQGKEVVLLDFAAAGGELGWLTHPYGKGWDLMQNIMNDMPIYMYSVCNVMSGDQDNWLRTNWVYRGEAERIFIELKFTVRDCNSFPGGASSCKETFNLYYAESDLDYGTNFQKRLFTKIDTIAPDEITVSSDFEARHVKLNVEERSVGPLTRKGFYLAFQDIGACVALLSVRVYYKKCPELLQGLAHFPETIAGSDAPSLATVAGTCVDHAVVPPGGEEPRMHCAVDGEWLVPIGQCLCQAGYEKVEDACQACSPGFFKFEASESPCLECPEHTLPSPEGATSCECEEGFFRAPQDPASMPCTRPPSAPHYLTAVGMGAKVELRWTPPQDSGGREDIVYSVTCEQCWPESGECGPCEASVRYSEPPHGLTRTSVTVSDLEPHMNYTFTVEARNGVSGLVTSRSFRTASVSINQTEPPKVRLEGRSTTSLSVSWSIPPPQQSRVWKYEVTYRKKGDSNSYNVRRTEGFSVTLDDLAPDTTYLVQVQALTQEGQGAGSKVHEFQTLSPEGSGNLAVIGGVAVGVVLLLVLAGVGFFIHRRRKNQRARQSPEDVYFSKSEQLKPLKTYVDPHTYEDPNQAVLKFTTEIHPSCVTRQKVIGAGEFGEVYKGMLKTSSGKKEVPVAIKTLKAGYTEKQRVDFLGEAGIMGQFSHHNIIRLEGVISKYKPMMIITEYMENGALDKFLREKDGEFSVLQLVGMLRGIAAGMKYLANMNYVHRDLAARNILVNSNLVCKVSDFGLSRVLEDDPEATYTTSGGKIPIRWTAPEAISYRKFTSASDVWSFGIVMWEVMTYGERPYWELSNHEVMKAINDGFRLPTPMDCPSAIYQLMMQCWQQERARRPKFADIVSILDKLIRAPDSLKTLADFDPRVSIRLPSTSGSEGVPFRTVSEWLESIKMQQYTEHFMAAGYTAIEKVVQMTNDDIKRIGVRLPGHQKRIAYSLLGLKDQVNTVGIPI

[3] = target: Ephrin type-B receptor 2 (Homo sapiens) (UniProt P29323); assay: Inhibition of EPHB2 (unknown origin) at 1 uM
Sequence of Ephrin type-B receptor 2 (Homo sapiens) (P29323 whole entry): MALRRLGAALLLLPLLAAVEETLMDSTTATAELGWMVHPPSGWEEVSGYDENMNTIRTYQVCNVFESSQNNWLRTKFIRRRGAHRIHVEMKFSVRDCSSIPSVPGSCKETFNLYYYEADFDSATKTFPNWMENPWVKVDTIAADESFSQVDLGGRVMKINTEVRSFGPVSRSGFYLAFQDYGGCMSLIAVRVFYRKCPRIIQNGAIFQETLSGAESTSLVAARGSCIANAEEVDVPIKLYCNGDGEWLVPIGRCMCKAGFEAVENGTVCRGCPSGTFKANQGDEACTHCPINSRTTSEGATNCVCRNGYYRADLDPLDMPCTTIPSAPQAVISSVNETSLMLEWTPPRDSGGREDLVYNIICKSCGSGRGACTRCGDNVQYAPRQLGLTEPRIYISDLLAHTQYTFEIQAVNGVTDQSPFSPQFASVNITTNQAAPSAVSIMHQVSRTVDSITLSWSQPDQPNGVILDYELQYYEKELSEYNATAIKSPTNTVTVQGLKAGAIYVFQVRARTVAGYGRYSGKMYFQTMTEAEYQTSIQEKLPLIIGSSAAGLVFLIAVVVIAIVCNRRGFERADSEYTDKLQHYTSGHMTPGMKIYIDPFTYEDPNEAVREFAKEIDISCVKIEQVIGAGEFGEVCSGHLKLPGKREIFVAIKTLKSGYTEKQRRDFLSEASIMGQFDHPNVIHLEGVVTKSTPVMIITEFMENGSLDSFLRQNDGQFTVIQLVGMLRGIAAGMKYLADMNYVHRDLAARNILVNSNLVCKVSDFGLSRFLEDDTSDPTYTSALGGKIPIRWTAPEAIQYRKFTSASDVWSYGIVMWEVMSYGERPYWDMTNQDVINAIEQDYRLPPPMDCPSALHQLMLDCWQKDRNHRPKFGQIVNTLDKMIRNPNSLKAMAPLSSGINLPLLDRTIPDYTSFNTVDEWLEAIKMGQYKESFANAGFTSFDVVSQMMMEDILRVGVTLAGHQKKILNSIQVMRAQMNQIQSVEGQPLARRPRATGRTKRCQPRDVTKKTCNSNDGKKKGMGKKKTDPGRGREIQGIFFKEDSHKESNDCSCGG

[4] = target: Beta-adrenergic receptor kinase 1 (Homo sapiens) (UniProt P25098); assay: Inhibition of GRK2 (unknown origin) at 1 uM
Sequence of Beta-adrenergic receptor kinase 1 (Homo sapiens) (P25098 whole entry): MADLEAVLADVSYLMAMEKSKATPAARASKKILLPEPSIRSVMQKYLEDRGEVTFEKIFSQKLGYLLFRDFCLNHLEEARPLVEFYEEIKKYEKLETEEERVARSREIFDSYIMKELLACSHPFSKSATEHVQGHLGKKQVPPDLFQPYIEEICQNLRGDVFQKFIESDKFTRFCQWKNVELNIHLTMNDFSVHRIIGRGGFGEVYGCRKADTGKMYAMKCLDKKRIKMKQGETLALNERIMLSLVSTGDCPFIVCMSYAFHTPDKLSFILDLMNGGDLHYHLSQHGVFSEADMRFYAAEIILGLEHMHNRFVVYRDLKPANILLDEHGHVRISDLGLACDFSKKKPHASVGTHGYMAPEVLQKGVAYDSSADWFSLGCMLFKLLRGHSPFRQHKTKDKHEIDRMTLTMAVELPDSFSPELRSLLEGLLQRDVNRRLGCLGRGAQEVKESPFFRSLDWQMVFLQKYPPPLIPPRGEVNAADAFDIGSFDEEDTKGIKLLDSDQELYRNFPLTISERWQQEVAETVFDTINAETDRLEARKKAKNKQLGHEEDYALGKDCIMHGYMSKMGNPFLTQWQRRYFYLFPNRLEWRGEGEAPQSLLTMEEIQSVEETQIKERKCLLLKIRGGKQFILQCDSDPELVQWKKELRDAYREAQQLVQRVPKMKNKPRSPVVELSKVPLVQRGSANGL

[5] = target: Muscle, skeletal receptor tyrosine-protein kinase (Homo sapiens) (UniProt O15146); assay: Inhibition of MUSK (unknown origin) at 1 uM
Sequence of Muscle, skeletal receptor tyrosine-protein kinase (Homo sapiens) (O15146 whole entry): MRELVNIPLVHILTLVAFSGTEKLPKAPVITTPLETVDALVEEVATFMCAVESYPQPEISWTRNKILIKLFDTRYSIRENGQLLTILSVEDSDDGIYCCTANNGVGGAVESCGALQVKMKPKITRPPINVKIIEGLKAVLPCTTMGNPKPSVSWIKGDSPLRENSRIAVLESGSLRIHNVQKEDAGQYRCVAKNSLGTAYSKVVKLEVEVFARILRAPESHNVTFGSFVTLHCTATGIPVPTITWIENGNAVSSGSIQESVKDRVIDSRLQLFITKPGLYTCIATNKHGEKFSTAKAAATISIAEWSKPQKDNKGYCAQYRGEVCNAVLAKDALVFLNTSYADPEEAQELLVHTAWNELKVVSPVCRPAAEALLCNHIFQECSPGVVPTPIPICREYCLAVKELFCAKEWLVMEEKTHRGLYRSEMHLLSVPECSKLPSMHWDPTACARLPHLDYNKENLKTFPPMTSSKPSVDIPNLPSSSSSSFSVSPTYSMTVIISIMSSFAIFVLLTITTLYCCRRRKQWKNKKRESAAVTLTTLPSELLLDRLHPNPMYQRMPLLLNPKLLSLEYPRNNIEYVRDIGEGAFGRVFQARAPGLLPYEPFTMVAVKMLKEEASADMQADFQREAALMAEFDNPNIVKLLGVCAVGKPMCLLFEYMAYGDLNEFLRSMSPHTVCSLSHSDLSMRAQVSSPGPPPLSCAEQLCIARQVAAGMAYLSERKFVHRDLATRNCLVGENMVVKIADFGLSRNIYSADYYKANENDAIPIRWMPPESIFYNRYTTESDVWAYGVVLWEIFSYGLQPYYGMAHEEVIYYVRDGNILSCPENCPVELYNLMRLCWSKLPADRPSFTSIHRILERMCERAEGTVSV

[6] = target: Serine/threonine-protein kinase ULK1 (Homo sapiens) (UniProt O75385); assay: Inhibition of ULK1 (unknown origin) at 1 uM
Sequence of Serine/threonine-protein kinase ULK1 (Homo sapiens) (O75385 whole entry): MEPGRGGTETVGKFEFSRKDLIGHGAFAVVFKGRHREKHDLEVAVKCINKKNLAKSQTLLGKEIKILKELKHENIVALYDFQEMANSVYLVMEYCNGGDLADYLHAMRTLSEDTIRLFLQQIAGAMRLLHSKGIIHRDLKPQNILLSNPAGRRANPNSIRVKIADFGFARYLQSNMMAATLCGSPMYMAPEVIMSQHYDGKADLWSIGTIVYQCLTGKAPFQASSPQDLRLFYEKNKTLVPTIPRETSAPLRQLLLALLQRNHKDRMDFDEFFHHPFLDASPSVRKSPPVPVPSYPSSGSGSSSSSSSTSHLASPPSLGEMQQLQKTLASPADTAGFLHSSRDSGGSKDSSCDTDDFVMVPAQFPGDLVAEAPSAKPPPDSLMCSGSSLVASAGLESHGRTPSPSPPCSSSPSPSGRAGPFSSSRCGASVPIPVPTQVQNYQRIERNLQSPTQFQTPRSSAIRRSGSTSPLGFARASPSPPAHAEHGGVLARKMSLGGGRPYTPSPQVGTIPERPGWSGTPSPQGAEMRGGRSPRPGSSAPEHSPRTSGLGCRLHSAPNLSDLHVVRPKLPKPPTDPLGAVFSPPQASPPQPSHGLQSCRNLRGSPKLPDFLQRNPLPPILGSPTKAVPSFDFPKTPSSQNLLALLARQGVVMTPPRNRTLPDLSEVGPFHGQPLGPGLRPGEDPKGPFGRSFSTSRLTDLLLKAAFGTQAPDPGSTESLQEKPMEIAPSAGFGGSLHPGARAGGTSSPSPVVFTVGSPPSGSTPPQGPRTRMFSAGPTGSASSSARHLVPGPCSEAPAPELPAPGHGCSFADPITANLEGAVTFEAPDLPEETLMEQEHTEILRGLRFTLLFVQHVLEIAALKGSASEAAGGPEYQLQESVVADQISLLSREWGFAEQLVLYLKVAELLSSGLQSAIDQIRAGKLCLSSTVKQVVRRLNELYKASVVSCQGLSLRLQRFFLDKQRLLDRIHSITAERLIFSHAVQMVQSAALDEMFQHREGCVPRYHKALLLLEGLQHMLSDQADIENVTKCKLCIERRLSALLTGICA

OCCOCc1cn(CCNc2nonc2/C(=N/O)Nc2ccc(F)c(Br)c2)nn1
IC50 [1]: 144 nM
inhibition (Mus musculus): Active
inhibition [2]: inactive
inhibition [3]: inactive
inhibition [4]: inactive
inhibition [5]: inactive
inhibition [6]: inactive
